For the assay, the system named is Group B Streptococcus (GBS, strain 515). Briefly: Bacterial binding to human keratinocyte monolayers, GBS. To be noted: 1 mg/ml pre-incubation; multiplicity of infection 10; 1 hour. It is filed as cell-based. The method, then: Keratinocyte monolayers were prepared as descibed above in Methods section and pre-incubated with 1 mg/ml alginate (AL, solid bars) or 1 mg/ml hyaluronic acid (HA, hatched bars) prior to surface inoculation (as described above in Methods) with either Group A Streptococcus (GAS, strain 950771), Group B Streptococcus (GBS, strain 515), Streptococcus pneumoniae (S. pneumo, type 6), or Staphylococcus aureus (S. aureus, type 8) at a multiplicity of infection of 10 bacteria per keratinocyte for 1 hour.

Inhibition of binding data for one substance are collected here from patent publication US20030013643A1, “Prevention and treatment of streptococcal and staphylococcal infection” (priority 2000, published 2003).

On to hyaluronic acid, for which the inhibition of binding entry is recorded as “more than 80%”.
